Experimental data as given in US6558900B2, “Regulation of apoptosis and in vitro model for studies thereof” (Emory University, priority 1996, dated 2003).

Experiments:
CPP32 [1] = assay: Reconstitution of dATP-dependent CPP32 activation in HeLa S-100 immunodepleted of cytochrome c; type: biochemical, human
Procedure: Cytochrome c present in the HeLa cell S-100 was immunodepleted as described in the Example 10. In FIG. 7A, 10 μl aliquots of HeLa S-100 (50 μg) (lanes 1 and 2), or 10 μl aliquots of HeLa S-100 immunodepleted of cytochrome c (lanes 3 and 4), or 10 μl of HeLa S-100 immunodepleted of cytochrome c supplemented with 0.2 μg Apaf-2 purified through the Mono S column (H) (lanes 5 and 6), bovine heart cytochrome c (B) (lanes 7 and 8), or rat liver cytochrome c (R) (lanes 9 and 10), were incubated with aliquots of 3 μl in vitro translated, ^35S-labeled CPP32 in the absence (lanes 1, 3, 5, 7, 9) or presence (lanes 2, 4, 6, 8, 10) of 1 mM dATP at 30° C. for 1 hr in a final reaction volume of 20 μl of buffer A. Samples were subjected to SDS-PAGE and transferred to a nitrocellulose filter which were then exposed to film for 16 hr at room temperature. In FIG. 7B, HeLa S-100 (50 μg) immunodepleted of cytochrome c were reconstituted with the indicated amount of Apaf-2 (purified through Mono S column step) in a CPP32 cleavage reaction as described in FIG. 7A. The cleaved products (p20) were quantified in a Fuji-1000 phosphorimager machine and plotted in comparison with that generated by HeLa S-100. In FIG. 7C, aliquots of 50 μl of HeLa S-100 (250 μg) (lanes 1 and 2), or 50 μl of HeLa S-100 immunodepleted of cytochrome c (lanes 3 and 4), or 50 μl of HeLa S-100 immunodepleted of cytochrome c supplemented with 1 μg apaf-2 purified through the Mono S column (H) (lanes 5 and 6), bovine heart cytochrome c (B) (lanes 7 and 8), or rat liver cytochrome c (R) (lanes 9 and 10), were incubated with aliquots of 6 μl hamster liver nuclei in the absence (lanes 1, 3, 5, 7, 9) or presence (lanes 2, 4, 6, 8, 10) of 1 mM dATP at 37° C. for 2 hr in a final reaction volume of 60 μl. The DNA were isolated as described in the Examples, analyzed on 2% agarose gel electrophoresis, and the DNA was visualized by ethidium bromide staining. In FIG. 7D, DNA fragmentation assays were carried out as in FIG. 7C using HeLa S-100 immunodepleted of cytochrome c alone (a,b) or supplemented with Apaf-2 purified through Mono S column step (c,d) in the absence (a,c) or presence of 1 mM dATP (b,d). After 2 hr incubation at 37° C., an aliquot of each reaction (30 μl) was stained with 4′,6′-diamidino-2-phenylindole (DAPI), and observed under a fluorescence microscope with a UV-2A combination filter.
To rule out the possibility that the Apaf-2 activity is due to a minor contaminating protein that co-purified with cytochrome c, an immunodepletion experiment was carried out using a monoclonal antibody against rat cytochrome c. This monoclonal antibody cross-reacts with purified Apaf-2. As shown in FIGS. 7A-7D, HeLa cell S-100 depleted of cytochrome c using the monoclonal anti-cytochrome c antibody lost the dATP-dependent activation of CPP32 and the ability to induce DNA fragmentation in the added nuclei (FIGS. 7A and 7C, lanes 3 and 4). Adding back either the purified Apaf-2 from HeLa cells or the commercial cytochrome c from bovine heart or rat liver to the immunodepleted extracts restored the dATP-dependent activation of CPP32 and DNA fragmentation (FIGS. 7A and 7C, lanes 5-10). The reconstitution of cytochrome c dependent-activation of CPP32 was evident with the addition of 0.01 μg (33 nM) of purified cytochrome c to the cytochrome c-depleted extracts (FIG. 7B).
CPP32 was translated and purified as described above. Aliquot of 3 μl of the in vitro translated CPP32 was incubated with the indicated protein fraction, nucleotides, and 1 mM additional MgCl2 at 30° C. for 1 hour in a final volume of 20 μl of buffer A. At the end of the incubation, 7 μl of 4×SDS sample buffer was added to each reaction. After boiling for 3 min, each sample was subjected to a 15% SDS-polyacrylamide gel electrophoresis (SDS-PAGE). The gel was transferred to a nitrocellulose filter which was subsequently exposed to a Kodak X-OMAT AR X-ray film (Eastman Kodak, Rochester, N.Y.) for 16 hr at room temperature. […]

CPP32 [2] = assay: Reconstitution of dATP-dependent activation of CPP32 with S-cytosol (sucrose-prepared HeLa cytosol); type: biochemical, human; conditions: S-cytosol 50 μg supplemented with 0.2 μg, 1 mM dATP
Procedure: On day 0, Hela cells were set up at 5×10^5 cells per 100 mm dish in medium A as described hereinbelow. On day 2, cells were harvested, collected by centrifugation (1000 g, 10 min, 4° C.). After washed once with ice-cold PBS, the cell pellet was suspended in 5 volumes of ice-cold buffer A containing 250 mM sucrose. The cells were disrupted by douncing 3 times in a 5 ml Wheaton douncer with a pestle polished with sand paper. After microcentrifugation for 5 min at 4° C., the supernatants were further centrifuged at 10^5×g for 30 min in a table top ultracentrifuge (Beckman Instruments, Fullerton, Calif.). The resulting supernatants were designated as S-cytosol. Aliquots of S-cytosol (50 μg) alone (lanes 1 and 2), or supplemented with 0.2 μg Apaf-2 purified through the Mono S column (lanes 3 and 4), were incubated with aliquots of 3 μl in vitro translated, ^35S-labeled CPP32 in the absence (lanes 1, 3) or presence (lanes 2, 4) of 1 mM dATP at 30° C. for 1 hr in a final reaction volume of 20 μl of buffer A. Samples were subjected to SDS-PAGE and transferred to a nitrocellulose filter which were then exposed to film for 16 hr at room temperature.
Human cytochrome c is encoded by a single copy nuclear gene [Evans and Scarpulla (1988) Proc. Natl. Acad. Sci. USA 85, 9625-9629] which is translated on cytoplasmic ribosomes as apocytochrome c. […]

[3] = added to cytochrome c-depleted extracts

## Apaf-2: 15 kDa factor bound to phosphocellulose column, purified from HeLa S-100, identified as human cytochrome c
CPP32 [1]; 0.2 μg added to immunodepleted HeLa S-100, 1 mM dATP
  restoration of dATP-dependent activation of CPP32: restored
CPP32 [1]; [3]
  amount at which reconstitution of CPP32 activation was evident: 0.01 µg
  concentration at which reconstitution of CPP32 activation was evident: 33 nM
CPP32 [1]; addition of 0.3 μg
  recovered control activity (p20 cleaved product vs HeLa S-100): more than 100%
CPP32 [2]
  dATP-dependent activation of CPP32 in S-cytosol: incapable of initiating the dATP-dependent activation of CPP32 (lanes 1 and 2) unless purified cytochrome c was added
